Common to all, as to experiment: growth of human tumour cells (NCI), 48 h
Assay [1] deals with NCI-H522 lung.
The test system of assay [2] is NCI/ADR-RES ovarian.
The test system of assay [3] is CCRF-CEM leukemia.
Assay [4] relates to SR leukemia.
Assay [5] concerns MALME-3M melanoma.
The test system of assay [6] is MDA-MB-231 breast.
Assay [7] deals with ACHN renal.
Assay [8] has as its system K-562 leukemia.
Assay [9] relates to T-47D breast.
Assay [10] concerns HOP-92 NSCLC.

“And” between values parts separate entries of the source, which are not always exact repeats. Identical values can stand only once.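 Protocol summary: plate cells (96-well), add compound at 5 concentrations, incubate 48 h, interpolate endpoints linearly. Here, GI50 denotes the concentration required for 50% inhibition of growth. TGI: concentration producing complete growth inhibition.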 Where a SMILES comes first, the peptide text is derived from it. The star is where a group is joined. Boc = CC(C)(C)OC(=O)*; OBn = c1ccc(CO*)cc1

These results are taken from PubChem BioAssay (NCI).

`Cc1ccc(S(=O)(=O)NC(=O)NC(CCCCN=C(N)N)C(=O)O)cc1` (configuration not stated): the TGI in assay [1], in assay [2], in assay [3], in assay [4], in assay [5] and in [6] was above 100 µM each time. The TGI in assay [7], in assay [8], in assay [9] and in assay [10] was above 100 µM each time.

For `Cn1c([C@H](C#N)C(=O)c2cc(O)ccc2[N+](=O)[O-])nc2ccccc21`, the TGI in [1], in assay [2], in assay [3], in assay [4], in assay [5] and in assay [6] was above 100 µM in each case. The TGI in assay [7], in assay [9] and in [10] was above 100 µM throughout.

In the case of `Cc1c(OCc2ccccc2)c(=O)ccn1CCc1c[nH]c2ccccc12`, the TGI in [1] is 69.4 µM; in assay [2], above 100 µM; in assay [3], above 100 µM; in assay [4], 79.7 µM; in assay [5], 88.3 µM; in [6] it was above 100 µM. For the same compound, the values for the TGI in assay [7], in assay [9] and in assay [10] were above 100 µM, 58.1 µM and 51.3 µM, respectively.

As to `OCC(CCc1ccccc1I)C1=CCC2(CC1)OCCO2` (configuration not stated), the TGI is 30.3 µM in [1]; 48 µM in [2]; 35.7 µM in assay [3]; above 100 µM in assay [4]; 33.6 µM in [5]; 62.9 µM in assay [6]. The TGI is above 100 µM in assay [7], above 100 µM in assay [8], 42.3 µM in assay [9] and 28.6 µM in assay [10].

With `COc1ccc(C2OCCN2C)cc1` (configuration not stated), the TGI in assay [1], in assay [2], in [3], in assay [4], in assay [5] and in assay [6] was above 100 µM throughout. In addition, the TGI in assay [7], in assay [8], in assay [9] and in [10] was above 100 µM in each case.

Take `CCOC(=O)C(NC(=O)CC)(Nc1ccc(S(=O)(=O)Nc2onc(C)c2C)cc1)C(F)(F)F` (configuration not stated): the TGI in assay [1], in [2], in assay [3], in [4], in assay [5] and in assay [6] was above 100 µM throughout. For the same compound, the TGI in assay [7], in assay [8], in [9] and in assay [10] was above 100 µM in each case.

`CC(=O)OC1C2CCC3C(C)(O)C4CC(O)C(C)(C)C4(O)C(O)CC13CC2(C)O` (configuration not stated): the TGI in assay [1], in assay [2], in assay [3], in assay [4], in assay [6] and in assay [7] was above 100 µM throughout. In addition, the TGI in assay [8], in assay [9] and in assay [10] was above 100 µM each time.

For the compound `Nc1cccc(S(=O)(=O)Nc2nnc(S(N)(=O)=O)s2)c1`, the TGI in [1], in assay [2], in [4], in assay [5], in [6] and in assay [7] was above 100 µM each time. Also, the TGI in assay [8], in assay [9] and in [10] was above 100 µM each time.

In the case of `O=[N+]([O-])c1ccc2oc(=Nc3ccccc3)c(Nc3ccccc3)nc2c1`, the TGI is 67.2 µM in assay [1]; above 100 µM in assay [2]; above 100 µM in [3]; above 100 µM in [4]; above 100 µM in assay [5]; above 100 µM in [6]. Besides, the TGI in assay [7] was above 100 µM; in [8] it was above 100 µM; in assay [9], above 100 µM; in assay [10], 93 µM.

Take `CO[C@H]1O[C@@H]2CO[C@@H](c3ccccc3)O[C@H]2[C@@H]2C/C=C\CCC[C@@]12O`: the TGI was 43.4 µM in assay [1]; 88.3 µM in assay [2]; above 100 µM in assay [3]; 49.4 µM in [4]; 68.4 µM in assay [6]; 38.1 µM in [7]. Also, the TGI in [8] is 51.1 µM; in assay [9], above 100 µM; in assay [10], 43.7 µM.

In the case of `CCOc1ccc(N=NC2C(=O)N(C(=O)CC(=O)Nc3ccccc3)N=C2C)cc1` (configuration not stated), the TGI in assay [1], in assay [2], in [3], in assay [4], in assay [5] and in assay [6] was above 100 µM each time. In addition, the TGI is above 100 µM in assay [7], above 100 µM in [9] and 90.7 µM in [10].

In the case of `N=C(N)SCCC(=O)CCSC(=N)N`, the TGI in assay [1], in [2], in assay [3], in assay [4], in assay [6] and in assay [7] was above 100 µM in each case. Moreover, the TGI in [8], in assay [9] and in [10] was above 100 µM each time.

Take `Cc1ccc(-c2cc(O)c3nc4ccccc4n3c2)cc1`: the TGI in [1], in assay [2], in [3], in assay [4], in assay [5] and in assay [6] was above 100 µM in each case. Further, the TGI in assay [8], in [9] and in [10] was above 100 µM in each case.

As for `CCCC1C(=O)Nc2cccc3ncn(c23)C1=O` (configuration not stated), the TGI in assay [2], in assay [3], in assay [4], in assay [5], in [6] and in assay [7] was above 100 µM throughout. Also, the TGI in assay [8], in assay [9] and in assay [10] was above 100 µM throughout.

With `NC(Cc1c[nH]c2cc([N+](=O)[O-])ccc12)C(=O)O` (configuration not stated), the TGI in [1], in assay [2], in [4], in assay [5], in [6] and in assay [7] was above 100 µM in each case. In addition, the TGI in [8], in assay [9] and in assay [10] was above 100 µM throughout.

As for `CCCCCCCCCC(=O)N[C@@H](c1ccco1)[C@@H](O)C(=O)O[C@H]1C[C@@]2(O)[C@@H](OC(=O)c3ccccc3)[C@@H]3[C@]4(OC(C)=O)CO[C@@H]4C[C@H](O)[C@@]3(C)C(=O)[C@H](OC(C)=O)C(=C1C)C2(C)C`, the TGI in assay [1] was 0.631 µM; in [2] it was 20.5 µM; in assay [4], 10 µM; in [5], 12.4 µM; in assay [6], 4.47 µM; in assay [7] it was above 22.7 µM. The TGI in assay [8] was above 50 µM; in [9], 1.42 µM; in assay [10], 21.2 µM.

As to `O=C1CC(C(OCc2ccccc2)C(OCc2ccccc2)C(COCc2ccccc2)OCc2ccccc2)CC(=O)N1` (configuration not stated), the TGI in [2] is above 100 µM; in [3], 80.4 µM and > 75 µM; in [4] it was above 100 µM; in assay [5] it was above 100 µM; in assay [6], above 100 µM; in [7], above 100 µM. Also, the TGI is above 100 µM in [8], 65.6 µM in [9] and above 100 µM in assay [10]. Besides, the GI50 in assay [3] is 19.4 µM and 64.4 µM; in assay [8] it was > 100 µM and 41 µM; in assay [10] it was 90.7 µM and 30.3 µM.

On to `CC(C)CC(NC(=O)OC(C)(C)C)C(=O)NC(CC(=O)OCc1ccccc1)C(=O)OCc1ccccc1` (stereo not drawn) (Boc-Leu-Asp(OBn)-OBn; configuration not given here), for which the TGI in assay [1] is 79.2 µM; in assay [2], above 100 µM; in [3], above 100 µM; in assay [4], 63.8 µM; in [5], above 100 µM; in [6], above 100 µM. For the same compound, the TGI in assay [8], in assay [9] and in [10] was above 100 µM in each case.

Regarding `N#C/C(=C\c1ccc([N+](=O)[O-])s1)c1nc2cc(Cl)ccc2s1`, the GI50 is 1.18 µM in assay [1]; 1.06 µM in assay [2]; 0.469 µM in [3]; 0.323 µM in [4]; 0.202 µM in assay [5]; 0.297 µM in assay [6]. Further, the GI50 is 0.264 µM in [8], 1.88 µM in assay [9] and 0.287 µM in [10]. In addition, the TGI in [1] was 3.56 µM; in assay [2], 6.07 µM; in [3] it was above 100 µM; in [4], above 100 µM; in assay [5] it was 0.541 µM; in assay [6], 1.21 µM. Moreover, the TGI in assay [8] is above 100 µM; in [9], 4.97 µM; in assay [10], 1.6 µM.

Turning to `O=C1C=C2CCC[C@H]3OC(=O)C[C@@]23CC1`, the TGI in assay [1], in assay [2], in [4], in [5], in [6] and in assay [7] was above 100 µM in each case. In addition, the TGI in assay [8], in assay [9] and in assay [10] was above 100 µM in each case.
